# Test results published in patent US10517867B2, “Posaconazole derivative, pharmaceutical composition and use thereof” (priority 2016, dated 2019).
# Read-outs that look alike come from different tables or passages of the source.
# How the values were obtained:
# [1] = Determination of solubility in deionized water (HPLC, external standard); conditions: 25 °C, water, thermodynamic from solid
# [2] = In vitro metabolic stability in rat intestine S9; assay type: in vitro ADME; conditions: rat, intestinal S9, pH 7.4; 37° C., 10 μM compound, 1 mg/mL S9, NADPH regeneration system; read-out: Rat intestine S9 T1/2
# In short: (§1)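 Human or rat plasma, preincubated 5 min at 37 °C, or intestinal S9 at 37 °C, spiked from 1 mM stock; triplicates sampled at 1, 2, 5, 15 and 30 min into cold internal standard. HPLC quantitation; half-life by non-compartmental analysis.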
# [3] = tested on: Candida albicans ATCC10231; test: Systemic fungal infection in mice, intragastric administration; assay type: in vivo, ICR mice; conditions: Candida albicans, ATCC10231, po
# [4] = In vitro metabolic stability in human plasma; assay type: in vitro ADME; conditions: human, plasma, 37° C., 10 μM compound, read-out: Human plasma T1/2
# In short: as §1
# [5] = In vitro metabolic stability in human intestine S9; assay type: in vitro ADME; conditions: human, intestinal S9; 37° C., 10 μM compound, 1 mg/mL S9, NADPH regeneration system; read-out: Human intestine S9 T1/2
# In short: as §1
# [6] = In vitro metabolic stability in rat plasma; assay type: in vitro ADME; conditions: rat, plasma, 37° C., 10 μM compound, read-out: Rat plasma T1/2
# In short: as §1
# [7] = Solid stability test (stability chamber, HPLC total impurity); assay type: physicochemical
# [8] = tested on: Candida albicans ATCC10231; test: Candida albicans vaginitis in mice, intragastric administration; assay type: in vivo, KM mice; conditions: logarithm of the CFU values, mean ± SD of 20 mice, 20 mg/kg intragastric once a day
# [9] = tested on: Candida albicans ATCC10231; test: Systemic fungal infection in mice, intravenous administration; assay type: in vivo, ICR mice
# [10] = tested on: Aspergillus Fumigutus (AF) strains; test: Aspergillus fumigatus keratitis in rats, intravenous administration; conditions: 10 mg/kg tail vein once daily for 5 days; mean ± SD of 10 rats
# [11] = tested on: Aspergillus fumigatus AF293; test: Lung Aspergillus fumigatus infection in immunosuppressed mice, intravenous administration; conditions: for responders at 20 mg/kg: Aspergillus fumigatus, AF293, in Mus musculus, iv
# Experimental: ICR male mice were injected intraperitoneally with cyclophosphamide 150 mg/kg and injected subcutaneously with dexamethasone 150 mg/kg for 10 consecutive days. At the same time, the blood was taken to measure the changes of peripheral white blood cells and neutrophils, and mice with neutrophils consistently lower than 100/μl were selected as successfully immunosuppressed mice. Immediately after the last injection, the mice were anesthetized with ethyl ether, and mice were transferred from the initial state of excitement to inhibition. After their bodies were relaxed, the mice were immediately taken. Left hand was used to grasp the mouse to make it stand upright, the middle finger pressed the mouth so that it could breath only with the nose, and the ring finger gently pressed the abdomen to move the diaphragm muscle upward. 30 μl of conidia suspension (Aspergillus fumigatus AF293, 3×10^6 conidia) was sent to the nostrils of the anesthetized mice by a micropipette to allow spontaneous inhalation. After the mouse returned to normal breathing, it was returned to the cage. […] The death of the mice was observed and the survival time was recorded. Seven days later, the mice were sacrificed and their lung tissues were taken to observe the fungal loads of Aspergillus fumigatus in the lungs of the mice.
smiles,measurement,setting,value
CC[C@@H]([C@H](C)O)n1ncn(-c2ccc(N3CCN(c4ccc(OC[C@@H]5CO[C@@](Cn6c[n+](C(C)OC(=O)N(C)c7ncccc7COC(=O)CN)cn6)(c6ccc(F)cc6F)C5)cc4)CC3)cc2)c1=O (stereo partly drawn) [ST0002],solubility at 30 min,[1],30.8 mg/mL
same,half-life at 10 µM,[2],18.5 ± 4.56 min
same,responders at 20 mg/kg,"[3]; 24 h, read-out: survival rate of mice, day 1, 20 mg/kg intragastric once daily for 5 days, day 1",100%
same,responders at 20 mg/kg,"[3]; 48 h, read-out: survival rate of mice, day 2, 20 mg/kg intragastric once daily for 5 days, day 2",100%
same,responders at 20 mg/kg,"[3]; 72 h, read-out: survival rate of mice, day 3, 20 mg/kg intragastric once daily for 5 days, day 3",90%
same,responders at 20 mg/kg,"[3]; 96 h, read-out: survival rate of mice, day 4, 20 mg/kg intragastric once daily for 5 days, day 4",80%
same,responders at 20 mg/kg,"[3]; 120 h, read-out: survival rate of mice, day 5, 20 mg/kg intragastric once daily for 5 days, day 5",80%
same,responders at 20 mg/kg,"[3]; 144 h, read-out: survival rate of mice, day 6, 20 mg/kg intragastric once daily for 5 days, day 6",70%
same,responders at 20 mg/kg,"[3]; 168 h, read-out: survival rate of mice, day 7, 20 mg/kg intragastric once daily for 5 days, day 7",70%
same,half-life at 10 µM,[4],0.78 ± 0.15 min
same,half-life at 10 µM,[5],14.9 ± 3.56 min
same,half-life at 10 µM,[6],1.12 ± 0.35 min
same,Total impurity increment in 30 days,[7],0.63%
same,"vaginal fungal load of mice, day 3",[8]; day 3,4.18 ± 0.22
same,"vaginal fungal load of mice, day 5",[8]; day 5,4.35 ± 0.41
same,"vaginal fungal load of mice, day 7",[8]; day 7,3.97 ± 0.47
same,"vaginal fungal load of mice, day 11",[8]; day 11,3.05 ± 0.27
same,responders at 20 mg/kg,"[9]; 24 h, read-out: survival rate of mice, day 1",100%
same,responders at 20 mg/kg,"[9]; 48 h, read-out: survival rate of mice, day 2",100%
same,responders at 20 mg/kg,"[9]; 72 h, read-out: survival rate of mice, day 3",100%
same,responders at 20 mg/kg,"[9]; 96 h, read-out: survival rate of mice, day 4",100%
same,responders at 20 mg/kg,"[9]; 120 h, read-out: survival rate of mice, day 5",100%
same,responders at 20 mg/kg,"[9]; 144 h, read-out: survival rate of mice, day 6",90%
same,responders at 20 mg/kg,"[9]; 168 h, read-out: survival rate of mice, day 7",90%
same,Amount of active fungi in cornea at day 7,[10],2.37 ± 0.49 10^3 CFU/ml
same,responders at 20 mg/kg,"[11]; 24 h, read-out: survival rate of mice, day 1, 20 mg/kg tail vein once daily for 5 days, day 1",100%
same,responders at 20 mg/kg,"[11]; 48 h, read-out: survival rate of mice, day 2, 20 mg/kg tail vein once daily for 5 days, day 2",100%
same,responders at 20 mg/kg,"[11]; 72 h, read-out: survival rate of mice, day 3, 20 mg/kg tail vein once daily for 5 days, day 3",100%
same,responders at 20 mg/kg,"[11]; 96 h, read-out: survival rate of mice, day 4, 20 mg/kg tail vein once daily for 5 days, day 4",100%
same,responders at 20 mg/kg,"[11]; 120 h, read-out: survival rate of mice, day 5, 20 mg/kg tail vein once daily for 5 days, day 5",90%
same,responders at 20 mg/kg,"[11]; 144 h, read-out: survival rate of mice, day 6, 20 mg/kg tail vein once daily for 5 days, day 6",90%
same,responders at 20 mg/kg,"[11]; 168 h, read-out: survival rate of mice, day 7, 20 mg/kg tail vein once daily for 5 days, day 7",80%
same,lung fungal load,"[11]; mouse lung tissue, seven days later, 20 mg/kg tail vein once daily for 5 days, mean ± SD",1.89 ± 0.22 10^4 CFU/ml
